Results: PubChem BioAssay AID179 (DTP/NCI, 2004)
Values joined by “and” are separate entries in the source; they are usually repeats but may differ in a detail not shown here. Equal entries are not always repeated. Active and inactive are the calls of the source.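 The calls were made as follows: active = compounds giving half or more protection of infected cells from virus-caused growth loss, again on retest; inactive = the rest.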 Where a SMILES comes first, the peptide text is derived from it. The star is where a group is joined. Boc = CC(C)(C)OC(=O)*

Test system: CEM cells HIV-1 protection, formazan growth assay
Assay: NCI AIDS Antiviral Assay
Conditions: for IC50: measured here: growth of uninfected CEM cells
Outline: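 Steps: treat uninfected and HIV-1-infected human CEM cells at five drug levels; quantify growth by soluble formazan; retest any compound reaching 50% protection; classify actives from the retest.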

Structure (SMILES)	outcome	EC50	IC50
COS(=O)c1cc(Cl)cc(Cl)c1O (stereo not given)	inactive	–	–
Clc1cc(Cl)cc(C2SCc3nc4ccccc4n32)c1 (stereo not given)	inactive	–	–
CCOC(=O)C1Cc2c(ccc(OC)c2OC)C(=O)C1N (stereo not given)	inactive	–	–
CN(NC(=O)/C(=C\c1ccco1)NC(=O)c1ccccc1)c1cn[nH]c(=O)c1Cl	–	> 200 µM	38.9 µM
CC1OC(OC2C(O)C(O)C(N=C(N)N)C(O)C2N=C(N)N)C(OC2OC(CO)C(O)C(O)C2N(C)C=N)C1(O)CO (stereo not given)	inactive	–	–
S=C(Nc1cccc(-c2ccccc2)c1)Nc1ccc(Br)cn1	–	> 200 µM	1.17 µM
O=S(=O)(c1cc(Cl)ccc1Cl)N1CCN(c2ccc(Cl)c(Cl)c2)CC1	–	> 200 µM	> 200 µM
Cc1cc2c(C(C)C)c(O)c(O)c(C=Nc3ccccc3S)c2c(O)c1-c1c(C)cc2c(C(C)C)c(O)c(O)c(C=Nc3ccccc3S)c2c1O	–	> 200 µM	16.2 µM
Cn1c2ccccc2c(=NNc2ccc(S(N)(=O)=O)cc2)c2ccccc21	–	> 200 µM	17.4 µM
Cc1cccc2c1C(=O)OC2(C)c1cccc2ccccc12 (stereo not given)	inactive	–	–
Cc1cc(N(CCC#N)CCC#N)ccc1/C=C1N=C(/C=C\c2ccccc2)OC\1=O	–	> 17.8 µM	> 17.8 µM
CC(C)(C)OC(=O)N1CCCC1C(=O)NC(c1ccccc1)c1ccccc1 (stereo not given)	–	> 200 µM	> 200 µM
CN(CN(C)/N=C/c1ccc(Cl)cc1)/N=C/c1ccc(Cl)cc1	inactive	–	–
COc1ccc(C2C3C(=O)OCCOC(=O)C3C2c2ccc(OC)c(OC)c2)cc1OC (stereo not given)	–	> 91.2 µM	83.2 µM
Cc1cc2c(=O)cc(-c3ccc(C(=O)O)cc3)oc2c(C(=O)O)c1C	inactive	–	–
Cc1cc(C(=O)O)c(C)cc1SSc1cc(C)c(C(=O)O)cc1C	–	> 105 µM	75.9 µM
C=CC(C)C1(CCCOCc2ccccc2)C(=S)N2CCC3(CC24CCCC14)OCCO3 (stereo not given)	inactive	–	–
CC(C)=CCc1c(-c2ccc(OC3OC(CO)C(O)C(O)C3O)cc2O)oc2c3c(cc(O)c2c1=O)OC(C)(C)C=C3 (stereo not given)	–	> 11.5 µM	> 11.5 µM
C[C@H]1N(O)CC2OC(n3ccc(=O)[nH]c3=O)C(O)C21O (mixture of isomers)	–	> 200 µM	> 200 µM
COC(=O)C(Cc1c[nH]c2ccccc12)NC(=O)C(Cc1c[nH]c2ccccc12)NC(=O)C(Cc1c[nH]c2ccccc12)NC(=O)C(Cc1c[nH]c2ccccc12)NC(=O)OC(C)(C)C (stereo not given) (Boc-WWWW-OMe; configuration not given here)	–	> 100 µM	13.8 µM
COc1cc(C2SCC(=O)N2c2ccc(-n3c(-c4ccccc4)nc4ccccc4c3=O)cc2)ccc1O (stereo not given)	–	> 200 µM	102 µM
NC(=O)C(=CN1C(=O)CC(=O)NC1=S)C(N)=O	–	> 200 µM	> 200 µM

Structure (SMILES)	outcome	EC50	IC50
CCOC(=O)c1cc(Br)c(-c2cc(C)co2)[nH]1	–	> 200 µM	> 200 µM
CN1C(=O)CNC(=O)c2ncn(C3OC(CO)C(O)C3O)c21 (stereo not given)	–	> 229 µM	> 229 µM
COC(=O)N1CC2CC=CC(C2)c2ccccc21 (stereo not given)	–	> 204 µM	> 204 µM
O=S1(=O)NNC(=NCc2ccc(Cl)cc2)c2ccccc21	inactive	–	–
COc1ccc2nc3cc(Cl)ccc3c(NCCCNCCCNc3c4ccc(Cl)cc4nc4ccc(OC)cc34)c2c1	–	> 2 µM	0.0148 µM
CN1CN(c2ccccc2)C2(CCN(CCc3csc4ccccc34)CC2)C1=O	–	> 200 µM	28.8 µM
CCOC(=O)C1(C(=O)OCC)COS(=O)OC1	–	> 186 µM	97.7 µM
CCCCOC(=O)C1CN2C(=NC1(C(F)(F)F)C(F)(F)F)Sc1ccccc12 (stereo not given)	inactive	–	–
Nc1nc(=O)n(C2OC(CO)CC2F)cc1Cl (stereo not given)	–	> 191 µM	> 191 µM
NC(=O)NN=C1CCC(CC2CCCCC2)CC1 (stereo not given)	–	> 200 µM	174 µM
COC(=O)C1=C(C(=O)OC)C2C=CC1C1C(Cl)=C(Cl)C21 (stereo not given)	inactive	–	–
COc1c(C(=O)/C(=N/Nc2ccc(C(=O)O)cc2)C(C)=O)c(O)cc2occc12	–	> 200 µM	110 µM
O=C1/C(=C/c2ccc(F)cc2)CCc2ccccc21	–	> 10.7 µM	> 10.7 µM
CS(=O)(=O)CCC(N)P(=O)(O)O (stereo not given)	–	> 200 µM	> 200 µM
O=C(O)P(=O)(O)O	–	> 7940 µM	5750 µM
Cc1ncc2c(n1)CCC1=C2OS(=O)(=O)CC1N(C)C (stereo not given)	–	> 200 µM	38.9 µM
Nc1nc2c(ncn2C2CCC(CO)OC2)c(=O)[nH]1 (stereo not given)	–	145 µM	> 200 µM
CC(C)CC(C[C@@H](O)[C@H](Cc1ccccc1)NC(=O)O[C@H]1CCOC1)S(=O)(=O)c1ccccc1 (stereo not given in full)	–	38.9 µM	112 µM
C=C(CCC(=O)N(CCc1c[nH]c2ccccc12)C(=O)c1ccccc1CSCC)C(=O)OC	–	> 200 µM	15.1 µM
CN(C)CCSC1=Nc2ccc(Cl)cc2C(c2ccccc2Cl)=NC1	–	> 200 µM	12.3 µM and 47.9 µM
CN(C)CCNc1ccc(NCCN(C)C)c2c1C(=O)c1ncsc1C2=O	–	> 100 µM	0.724 µM
CS(=O)(=O)OCC1OC(n2ccc(NC(=O)c3ccccc3)nc2=O)CC1OS(C)(=O)=O (stereo not given)	–	> 200 µM	> 200 µM

Structure (SMILES)	outcome	EC50	IC50
C=C(C)C1CC2C(C)=C(OC(C)=O)C1n1c(=O)c3cc4ccccc4cc3c(=O)n12 (stereo not given)	–	> 46.8 µM	> 46.8 µM
C[PH+](C)CC[PH+](C)CC[PH+](C)C.[C-]#[O+].[C-]#[O+].[C-]#[O+].[Cr]	–	> 2.88 µM	> 2.88 µM
O=C(O)CCC(NC(=O)c1ccc(CNc2nc3cc(C(F)(F)F)ccc3nc2C(=O)O)cc1)C(=O)O (stereo not given)	–	> 200 µM	> 200 µM
O=C1c2cccc([N+](=O)[O-])c2C(=O)N1CC[P+](c1ccccc1)(c1ccccc1)c1ccccc1	–	> 200 µM	> 200 µM
CCCNCC(=O)O[C@]1(CC)C(=O)OCc2c1cc1n(c2=O)Cc2cc3ccccc3nc2-1	–	> 10 µM	0.0525 µM
CC1CC(C)(C)OB(OC(C)CC(C)(C)OB2OC(C)CC(C)(C)O2)O1 (stereo not given)	–	> 200 µM	> 200 µM
O=C(O)CCCCCCCCC(=O)O	–	> 178 µM	> 178 µM
Cc1cc(S(=O)(=O)n2cc[nH]c2=O)c(S)cc1Cl	–	> 200 µM	> 200 µM
Cc1cn(C2CC(N)C(C(=O)NCC(=O)O)O2)c(=O)[nH]c1=O (stereo not given)	–	> 200 µM	> 200 µM
CC1(C)C/C=C\CCC(O)C(O)CCC(C)(C)C1=O (stereo not given)	–	> 200 µM	> 200 µM
COC1/C=C\OC2(C)Oc3c(C)c(O)c4c(O)c(c(C=Nc5ccccc5C)c(O)c4c3C2=O)NC(=O)/C(C)=C\C=C/C(C)C(O)C(C)C(O)C(C)C(OC(C)=O)C1C (stereo not given)	–	> 200 µM	29.5 µM
CCOP(=O)(OCC)O/N=C/c1cccc(C(F)(F)F)c1	–	> 204 µM	> 204 µM
CC(C)CN1CC(=O)N2CCCC(C)N2C(=O)C1 (stereo not given)	–	> 200 µM	> 200 µM
CC(C)(C)c1ccc2c(c1)CNCCNCc1cc(C(C)(C)C)ccc1OCC1(CO2)COc2ccc(C(C)(C)C)cc2CNCCNCc2cc(C(C)(C)C)ccc2OC1	–	> 1.51 µM	0.219 µM
CN1CCN(C(=S)N(C)C(=O)c2cccs2)CC1	–	> 891 µM	> 891 µM
CCC[CH2][Sn]([CH2]CCC)=[N]S(=O)(=O)c1ccc(Cl)c(C)c1	–	> 0.2 µM	0.0851 µM
COC1=CC(=O)C2C=C3C(CO)=CCC(O)C3(C)CC2C1=O (stereo not given)	–	> 200 µM	3.8 µM
COc1ccc(C2CC(=O)c3c(cc(OC)c(O)c3OC)O2)cc1 (stereo not given)	–	> 200 µM	32.4 µM
O=S(=O)(Nc1nc2ccccc2nc1Nc1ccc2ccccc2c1)c1ccccc1	–	> 200 µM	10.5 µM
CC1(C)CC(=O)C2=C(C1)C(c1ccccc1Cl)C1C(=O)CC(C)(C)CC1(O)O2 (stereo not given)	–	> 200 µM	28.8 µM
CC(C)=Nn1cnc(C(=N)C#N)c1N	–	> 200 µM	> 200 µM
CCOC(=O)CCC(NC(=O)c1ccc(N=Cc2nc3cc(C(F)(F)F)ccc3nc2-c2ccccc2)cc1)C(=O)OCC (stereo not given)	–	> 5.89 µM	> 5.89 µM

Structure (SMILES)	outcome	EC50	IC50
O=c1[nH]c2c(nc1NC13CC4CC(CC(C4)C1)C3)c(=O)oc1ccccc12	–	> 2 µM	> 2 µM
Cc1ccc(S(=O)(=O)SCCN)cc1	–	> 115 µM	> 100 µM
C=CCN1CCC2(CC1)NC(=O)c1ccccc1O2	–	> 200 µM	> 200 µM
N#C[C@H](OC1OC(COC(=O)/C=C/c2ccc(O)c(O)c2)C(O)C(O)C1O)c1ccccc1 (stereo not given in full)	inactive	–	–
N#CC(NNC(=O)c1ccccc1O)c1c(O)ccc2ccccc12 (stereo not given)	–	> 40.7 µM	3.8 µM
O=C(O)c1cc2c(cc1CC(Cc1ccc3c(c1)CCCC3)C(=O)O)CCCC2 (stereo not given)	–	> 200 µM	51.3 µM
Brc1c(C#CCC2CCCCC2)ccc(C#CCC2CCCCC2)c1Br	–	> 100 µM	> 100 µM
CCC1(CC)SCc2nc3ccccc3n21	–	> 200 µM	63.1 µM
COc1ccc(NC(=O)CC(=O)n2nc(C)c(N=Nc3ccc(C)c(C)c3)c2C)cc1	–	> 200 µM	> 200 µM
CCOC(=O)C1=C(Nc2ccc(Br)cc2)OCC1=O	inactive	–	–
CCCCCCCCCN=C(N)CSSCC(N)=NCCCCCCCCC	–	> 200 µM	19.5 µM
O/N=C1/CCCc2nonc21	–	> 200 µM	> 200 µM
Cn1cc2c(c1-c1ccccc1)[n+](=O)c1ccccc1n2[O-]	–	5.13 µM	32.4 µM
CC12CCC(=O)N1c1ccc([N+](=O)[O-])cc1N2 (stereo not given)	inactive	–	–
CN(C)c1ccc2cc3ccc(N(C)C)cc3nc2c1	–	> 200 µM	0.309 µM
O=C(O)c1[nH]c(=O)[nH]c(=O)c1I	–	> 200 µM	> 200 µM
C[N+](C)([O-])CCCNc1c2ccccc2nc2cccc([N+](=O)[O-])c12	–	> 20 µM	0.186 µM
CC(=O)OC1CC2CCC1(C)C2(C)C (stereo not given)	–	> 200 µM	> 200 µM
COc1ccc(CC2Cc3ccccc3CC(=O)N2)cc1OC (stereo not given)	–	> 200 µM	17.8 µM
O=C1c2ccccc2CC12Cc1cc3c(cc1C2=O)CCC3 (stereo not given)	–	> 200 µM	> 200 µM
CC(=O)OCC1CC(n2cc(C)c(=O)[nH]c2=O)=NO1 (stereo not given)	–	> 200 µM	> 200 µM
